Measurements taken from patent publication US20260098031A1, “MONOCYCLIC COMPOUND HAVING GLP-1 RECEPTOR AGONIST ACTIVITY” (Shionogi & Co., Ltd., priority 2022, published 2026).

Molecular target: T1, Human GLP-1 receptor (Homo sapiens, UniProt P43220)
T1 construct: expressed in transfected cells; host or cells: CHO-K1
Assay: Measurement of GLP-1 receptor agonist activity (cAMP assay in hGLP-1R/CHO-K1 cells)
Format: cell-based
Conditions: for Emax: CHO-K1, maximum effect, cAMP with 2 nM human GLP-1 (7-36) = 100%, DMSO only = 0%; for EC50: cAMP increase in hGLP-1R/CHO-K1 cells, 1 hour at 37° C., with Forskolin
Procedure: Human GLP-1 receptor stably expressing cells (hGLP-1R/CHO-K1 cells) are cultured in an α-MEM medium (Sigma) containing 10% FBS (Hyclone), 2% GlutaMAX (Gibco), 1% G418 (Nacalai Tesque), and 1% Penicillin-Streptomycin Mixed Solution (Sigma) at 37° C. under 5% CO2 conditions, and recovered by treating a 10 fold diluted 5.0 g/1-trypsin/5.3 mmol/1-EDTA solution (Nacalai Tesque) and cryopreserved.
A DMSO solution containing the compound of the present invention or human GLP-1 (7-36) (Phoenix Pharmaceuticals) is dispensed into a 384-well microplate (Greiner) at 62.5 nL/well, and in addition, 400 μM Forskolin (Nacalai Tesque) is dispensed therein at 7.5 nL/well. Subsequently, the frozen GLP-1 R/CHO-K1 cells are thawed in a thermostatic bath at 37° C., suspended in HBSS buffer (GIBCO) containing 0.1% BSA (Sigma), 20 mM HEPES, 0.1 mM IBMX (Sigma), and 0.2 mM RO20-1724 (Calbiochem) at 2×10^4 cells/mL, and the cell suspension is added at 6 μL/well. The solution was incubated at 37° C. for 1 hour and intracellular cAMP concentration is measured using cAMP Gs dynamic kit (Cisbio) according to the protocol attached to the product. Specifically, a cAMP-d2/Anti-cAMP-Cryptate (1/1) mixture solution is added in a total amount of 6 μL/well, and is incubated at room temperature for 1 hour, and then, time-resolved fluorescence is measured using PHERAstar (BMG Labtech).
Assuming that the cAMP concentration when human GLP-1 (7-36) is dispensed to a final concentration of 2 nM is 100% and the cAMP concentration when only DMSO is dispensed is 0%, the 50% effective concentration (EC50) and the maximum effect (Emax) of the compound of the present invention are calculated using an increase in the cAMP concentration as an index, using TIBCO Spotfire (TIBCO Software). The dilution concentration or the dilution solvent are changed as necessary.
The compounds of the present invention were tested essentially as described above.

T1 sequence (P43220 24-463): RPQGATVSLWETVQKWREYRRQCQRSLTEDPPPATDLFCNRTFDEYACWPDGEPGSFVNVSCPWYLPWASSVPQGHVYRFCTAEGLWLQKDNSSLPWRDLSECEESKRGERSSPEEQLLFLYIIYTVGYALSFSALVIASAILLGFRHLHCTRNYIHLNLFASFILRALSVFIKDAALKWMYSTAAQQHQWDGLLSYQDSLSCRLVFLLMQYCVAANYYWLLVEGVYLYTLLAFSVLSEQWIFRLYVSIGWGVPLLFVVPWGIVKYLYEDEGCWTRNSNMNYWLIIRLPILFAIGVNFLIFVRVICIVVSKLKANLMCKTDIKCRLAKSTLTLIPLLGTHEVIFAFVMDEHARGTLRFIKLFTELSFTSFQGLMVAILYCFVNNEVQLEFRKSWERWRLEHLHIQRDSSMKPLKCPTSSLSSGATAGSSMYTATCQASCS

Row | Emax | EC50 | Compound
1 | 60% | 1060 nM | CC(NCc1nc2ccc(C(=O)O)cc2n1C[C@@H]1CCO1)c1ccc(C(F)(F)F)c(OCc2ccc(Cl)cc2F)n1 (mixture of isomers) [Compound I-004]
2 | 65.3% | 354 nM | CC(NCc1nc2ccc(C(=O)O)cc2n1C[C@@H]1CCO1)c1nc(OCc2ccc(Cl)cc2F)c(C(F)(F)F)cc1F (mixture of isomers) [Compound I-003]
3 | 52% | 2300 nM | CN(CCc1cnc(OCc2ccc(Cl)cc2F)c(C(F)(F)F)c1)Cc1nc2ccc(C(=O)O)cc2n1C[C@@H]1CCO1 [Compound I-002]
4 | 74.7% | 86 nM | CC(c1ccc(C(F)(F)F)c(OCc2ccc(Cl)cc2F)n1)N(C)Cc1nc2ccc(C(=O)O)cc2n1C[C@@H]1CCO1 (stereo partly shown) [Compound I-005]
5 | 55% | 2830 nM | O=C(O)c1ccc2nc(CNCc3ccc(C(F)(F)F)c(OCc4ccc(Cl)cc4F)n3)n(C[C@@H]3CCO3)c2c1 [Compound I-006]
